We go through 25 compounds from patent publication US7268152B2, “Glucocorticoid mimetics, methods of making them, pharmaceutical compositions, and uses thereof” (Boehringer Ingelheim Pharmaceuticals, Inc., priority 2002, dated 2007).

For this assay, the system named is glucocorticoid receptor. The assay is described as follows: One or more of the above assays (GR binding and GR cell assays; not specified which). In kind it is cell-based. The following applies: in one or more of the above assays. The method, then:
This assay uses fluorescence polarization (FP) to quantitate the ability of test compounds to compete with tetramethyl rhodamine (TAMRA)-labeled dexamethasone for binding to a human glucocorticoid receptor (GR) complex prepared from an insect expression system. The assay buffer was: 10 mM TES, 50 mM KCl, 20 mM Na2MoO4.2H2O, 1.5 mM EDTA, 0.04% w/v CHAPS, 10% v/v glycerol, 1 mM dithiothreitol, pH 7.4. Test compounds were dissolved to 1 mM in neat DMSO and then further diluted to 10×assay concentration in assay buffer supplemented with 10% v/v DMSO. Test compounds were serially diluted at 10×assay concentrations in 10% DMSO-containing buffer in 96-well polypropylene plates. […] Positive controls were reaction mixtures containing no test compound; negative controls (blanks) were reaction mixtures containing 0.7 μM to 2 μM dexamethasone. […] IC50 values were determined by iterative non-linear curve fitting of the FP signal data to a 4-parameter logistic equation.
B. Glucocorticoid Receptor Cell Assays
1. Induction of Aromatase in Fibroblasts (Cell Assay for Transactivation)
Dexamethasone, a synthetic ligand to the glucocorticoid receptor (GR), induces expression of aromatase in human foreskin fibroblast cells. The activity of aromatase is measured by the conversion of testosterone to estradiol in culture media.
On the day of the experiment, the media in the wells is replaced with fresh media. Cells are treated with test compounds to final concentrations of 10^−5 M to 10 ^−8 M, and testosterone to a final concentration of 300 ng/mL. Each well has a total volume of 100 μL. Samples are made in duplicates. Control wells include: (a) wells that receive testosterone only, and (b) wells that receive testosterone plus 2 μM of dexamethasone to provide maximum induction of aromatase. Plates are incubated at 37° C. overnight (15 to 18 hours), and supernatants are harvested at the end of incubation. […] The amount of estradiol is inversely proportional to the ELISA signals in each well. The extent of aromatase induction by test compounds is expressed as a relative percentage to dexamethasone. EC50 values of test compounds are derived by non-linear curve fitting.
2. Inhibition of IL-6 Production in Fibroblasts (Cell Assay for Transrepression)
Human foreskin fibroblast cells produce IL-6 in response to stimulation by pro-inflammatory cytokine IL-1.
On the next day, media in the wells is replaced with fresh media. Cells are treated with IL-1 (rhIL-1α, R&D Systems Cat. No. 200-LA) to a final concentration of 1 ng/mL, and with test compounds to final concentrations of 10 ^−5 M to 10 ^−8 M, in a total volume of 200 μL per well. Samples are done in duplicates. […] Positive control wells receive IL-1 only and represent maximum (or 100%) amount of IL-6 production. Plates are incubated at 37° C. overnight (15 to 18 hours), and supernatants are harvested at the end of incubation. IL-6 levels in the supernatants are determined by the ELISA kits for IL-6 (MedSystems Diagnostics GmbH, Vienna, Austria, Cat. No. BMS213TEN) according to manufacture's instructions. The extent of inhibition of IL-6 by test compounds is expressed in percentage relative to positive controls. IC50 values of test compounds are derived by non-linear curve fitting.
Evaluation of agonist or antagonist activity of compounds binding to the glucocorticoid receptor may be determined by any of the assays.
3. Modulation of Tyrosine Aminotransferase (TAT) Induction in Rat Hepatoma Cells
Testing of compounds for agonist or antagonist activity in induction of tyrosine aminotransferase (TAT) in rat hepatoma cells.
H4-II-E-C3 cells were incubated overnight in 96 well plates (20,000 cells/100 μL/well) in MEM medium containing 10% heat inactivated FBS and 1% nonessential amino acids. On the next day, cells were stimulated with the indicated concentrations of dexamethasone or test compound (dissolved in DMSO, final DMSO concentration 0.2%) for 18 hours. Control cells were treated with 0.2% DMSO.

For the compound `Cc1cccc(C(C)(C)CC(O)(Cc2ccc(C#N)cc2Cl)C2CC2)c1` (stereo not shown) [3-Chloro-4-[2-cyclopropyl-2-hydroxy-4-methyl-4-(3-methylphenyl)pentyl]benzonitrile], the “activity as agonists of the glucocorticoid receptor function” value (shortened to “activity”) is on record as “activity as agonists”. For the compound `CCc1cccc(C(C)(C)CC(O)(Cc2ccc(C#N)cc2Cl)C(F)(F)F)c1O` (stereo not shown) [3-Chloro-4-[4-(3-ethyl-2-hydroxyphenyl)-2-hydroxy-4-methyl-2-trifluoromethylpentyl]benzonitrile], the “activity” value is recorded as “activity as agonists”. As for `Cc1cccc(C(C)(C)CC(O)(Cc2ccc(C#N)cc2Cl)C(F)(F)F)c1` (stereo not shown) [3-Chloro-4-(2-hydroxy-4-methyl-4-m-tolyl-2-trifluoromethylpentyl)benzonitrile], the “activity” value is “activity as agonists”. Turning to `N#Cc1ccc(CC(O)(CC2(c3cc(F)ccc3O)CC2)C(F)(F)F)c(Cl)c1` (stereo not shown) [3-Chloro-4-{3,3,3-trifluoro-2-[1-(5-fluoro-2-hydroxyphenyl)cyclopropylmethyl]-2-hydroxypropyl}benzonitrile], the “activity” value was “activity as agonists”.

Turning to `CC(C)(CC(O)(Cc1ccc(C#N)cc1Cl)C(F)(F)F)c1ccc(F)cc1` (stereo not shown) [3-Chloro-4-[4-(4-fluorophenyl)-2-hydroxy-4-methyl-2-trifluoromethylpentyl]benzonitrile], the “activity” value was “activity as agonists”. Turning to `CC(C)(CC(O)(Cc1ccc(C#N)c2ccccc12)C(F)(F)F)c1cccc2c1OCC2` (stereo not shown) [4-[4-(2,3-Dihydrobenzofuran-7-yl)-2-hydroxy-4-methyl-2-trifluoromethylpentyl]naphthalene-1-carbonitrile], the “activity” value was “activity as agonists”. `CC(C)(CC(O)(Cc1ccc(C(=O)C2CC2)cc1Cl)C1CC1)c1cccc2c1OCC2` (stereo not shown) [{3-Chloro-4-[2-cyclopropyl-4-(2,3-dihydrobenzofuran-7-yl)-2-hydroxy-4-methylpentyl]phenyl}cyclopropylmethanone]: the “activity” value is “activity as agonists”. For the compound `CC(C)(CC(O)(Cc1ccc(C#N)cc1Cl)C(F)(F)F)c1cc(F)cc2c1OCC2` (stereo not shown) [3-Chloro-4-[4-(5-fluoro-2,3-dihydrobenzofuran-7-yl)-2-hydroxy-4-methyl-2-trifluoromethylpentyl]benzonitrile], the “activity” value is “activity as agonists”. As for `CC(C)(CC(O)(Cc1ccc(C#N)cc1Cl)C(F)(F)F)c1cc(C#N)cc2c1OCC2` (stereo not shown) [7-[3-(2-Chloro-4-cyanobenzyl)-4,4,4-trifluoro-3-hydroxy-1,1-dimethylbutyl]-2,3-dihydrobenzofuran-5-carbonitrile], the “activity” value is reported as “activity as agonists”.

On to `CC(C)(CC(O)(Cc1ccc(C#N)cc1Cl)C(F)(F)F)c1ccccc1` (stereo not shown) [3-Chloro-4-(2-hydroxy-4-methyl-4-phenyl-2-trifluoromethylpentyl)benzonitrile], for which the “activity” value is given as “activity as agonists”. As to `COc1ccc(F)cc1C(C)(C)CC(O)(Cc1ccc(C=O)cc1Cl)C(F)(F)F` (stereo not shown) [3-Chloro-4-[4-(5-fluoro-2-methoxyphenyl)-2-hydroxy-4-methyl-2-trifluoromethylpentyl]benzaldehyde], the “activity” value is “activity as agonists”.

With `CC(C)(CC(O)(Cc1ccc(C#N)cc1Cl)C(F)(F)F)c1ccc2ccccc2c1` (stereo not shown) [3-Chloro-4-(2-hydroxy-4-methyl-4-naphthalen-2-yl-2-trifluoromethylpentyl)benzonitrile], the “activity” value is “activity as agonists”. With `Cc1ccc(F)cc1C(C)(C)CC(O)(Cc1ccc(C#N)cc1Cl)C(F)(F)F` (stereo not shown) [3-Chloro-4-[4-(5-fluoro-2-methylphenyl)-2-hydroxy-4-methyl-2-trifluoromethylpentyl]benzonitrile], the “activity” value is recorded as “activity as agonists”. The same measure for `CC(C)(CC(O)(Cc1ccc(C#N)cc1Cl)C(F)(F)F)c1ccc(F)cc1O` (stereo not shown) [3-Chloro-4-[4-(4-fluoro-2-hydroxyphenyl)-2-hydroxy-4-methyl-2-trifluoromethylpentyl]benzonitrile]: “activity as agonists”. For the compound `Cc1ccccc1C(C)(C)CC(O)(Cc1ccc(C#N)cc1Cl)C(F)(F)F` (stereo not shown) [3-Chloro-4-(2-hydroxy-4-methyl-4-o-tolyl-2-trifluoromethylpentyl)benzonitrile], the “activity” value was “activity as agonists”. On to `COc1ccc(F)cc1C1(CC(O)(Cc2ccc(C#N)cc2Cl)C(F)(F)F)CC1` (stereo not shown) [3-Chloro-4-{3,3,3-trifluoro-2-[1-(5-fluoro-2-methoxyphenyl)cyclopropylmethyl]-hydroxypropyl}benzonitrile], for which the “activity” value is “activity as agonists”. For the compound `COc1cccc(C(C)(C)CC(O)(Cc2ccc(C#N)cc2Cl)C(F)(F)F)c1` (stereo not shown) [3-Chloro-4-[2-hydroxy-4-(3-methoxyphenyl)-4-methyl-2-trifluoromethylpentyl]benzonitrile], the “activity” value is “activity as agonists”. With `COc1ccc(F)cc1C(C)(C)CC(O)(Cc1ccc(CO)cc1Cl)C(F)(F)F` (stereo not shown) [2-(2-Chloro-4-hydroxymethylbenzyl)-1,1,1-trifluoro-4-(5-fluoro-2-methoxyphenyl)-4-methylpentan-2-ol], the “activity” value was “activity as agonists”. For `CC(C)(CC(O)(Cc1ccc(C#N)cc1Cl)C(F)(F)F)c1cccc(C(F)(F)F)c1` (stereo not shown) [3-Chloro-4-[2-hydroxy-4-methyl-2-trifluoromethyl-4-(3-trifluoromethylphenyl)pentyl]benzonitrile], the “activity” value was “activity as agonists”. As for `COc1ccc(F)cc1C(C)(C)CC(O)(Cc1cc(Cl)cc(Cl)c1Cl)C(F)(F)F` (stereo not shown) [1,1,1-Trifluoro-4-(5-fluoro-2-methoxyphenyl)-4-methyl-2-(2,3,5-trichlorobenzyl)pentan-2-ol], the “activity” value is “activity as agonists”.

For `COc1cc(F)c(Br)cc1C(C)(C)CC(O)(Cc1ccc(C#N)cc1Cl)C(F)(F)F` (stereo not shown) [4-[4-(5-Bromo-4-fluoro-2-methoxyphenyl)-2-hydroxy-4-methyl-2-trifluoromethylpentyl]-3-chlorobenzonitrile], the “activity” value is reported as “activity as agonists”.

Take `CC(C)(CC(O)(Cc1ccc(C#N)cc1Cl)C(F)(F)F)c1cc(O)cc(O)c1` (stereo not shown) [3-Chloro-4-[4-(3,5-dihydroxyphenyl)-2-hydroxy-4-methyl-2-trifluoromethylpentyl]benzonitrile]: the “activity” value was “activity as agonists”. As to `CC(C)(CC(O)(Cc1ccc(C#N)cc1Cl)C(F)(F)F)c1ccc(C(F)(F)F)cc1` (stereo not shown) [3-Chloro-4-[2-hydroxy-4-methyl-2-trifluoromethyl-4-(4-trifluoromethylphenyl)pentyl]benzonitrile], the “activity” value is reported as “activity as agonists”. Take `CC(C)(CC(O)(Cc1cc(C(F)(F)F)cc(Cl)c1F)C(F)(F)F)c1cc([N+](=O)[O-])cc2c1OCC2` (stereo not shown) [2-(3-Chloro-2-fluoro-5-trifluoromethylbenzyl)-1,1,1-trifluoro-4-methyl-4-(5-nitro-2,3-dihydrobenzofuran-7-yl)pentan-2-ol]: the “activity” value is on record as “activity as agonists”. For the compound `CC(C)(CC(O)(Cc1ccc(C#N)cc1Cl)C(F)(F)F)c1cccc(F)c1` (stereo not shown) [3-Chloro-4-[4-(3-fluorophenyl)-2-hydroxy-4-methyl-2-trifluoromethylpentyl]benzonitrile], the “activity” value is “activity as agonists”.
